Test results published in US5712367A, “Process for the solubilization of peptides and process for peptide synthesis” (Rhone-Poulenc Chimie, priority 1989, dated 1998).

Key:
Type in all cases: physicochemical
[1] = Solubility of N-tert-butyloxycarbonylpentaglycine esters (CH3)3COCO(NHCH2CO)5OR in anisole, CH2Cl2 and H2O; conditions: for Solubility in g/100 cm^3 CH2 Cl2: solvent CH2Cl2; for Solubility in g/100 cm^3 H2 O: solvent H2O; for Solubility in g/100 cm^3 anisole: solvent anisole
[2] = Partition coefficient of N-tert-butyloxycarbonylpentaglycine esters between CH2Cl2 and H2O
[3] = Measurement of the solubilities of the molecules of formula (L)-seryl-A--L in water; conditions: measured in the filtrate after grinding in water for 15 minutes
Method: Ammonia gas was passed into this solution at room temperature. The ammonium chloride precipitate obtained was rapidly filtered off. […] The product obtained after concentration was immediately ground in water for 15 minutes at room temperature and then filtered off.
The solubility of the product of formula (L)-seryl-A--L was measured in the filtrate.

Row | SMILES | Solubility in g/100 cm^3 CH2 Cl2 [1] [g/100 cm^3] | Solubility in g/100 cm^3 H2 O [1] [g/100 cm^3] | Solubility in g/100 cm^3 anisole [1] | Partition coefficient between CH2 Cl2 and H2 O [2] | solubility in water at 25° C. [3] [mg/mL]
1 | COC(=O)CNC(=O)CNC(=O)CNC(=O)CNC(=O)CNC(=O)OC(C)(C)C [CH3] | 0.33 | 0.50 | insoluble | 0.66 | –
2 | CC(C)(C)OC(=O)NCC(=O)NCC(=O)NCC(=O)NCC(=O)NCC(=O)OCc1cccc(C(=O)OCc2ccc(-c3ccccc3)cc2)c1 [Example R1] | > 10 | 0.0016 | 5 g/100 cm^3 | > 1,000 | –
3 | CC(C)(C)OC(=O)NCC(=O)NCC(=O)NCC(=O)NCC(=O)NCC(=O)OCc1cccc(C(=O)OCc2cccc(Oc3ccccc3)c2)c1 [Example R2] | > 10 | 0.0008 | 5 g/100 cm^3 | > 2,000 | –
4 | N[C@@H](CO)C(=O)OCc1ccccc1 [L-Serine benzyl ester] | – | – | – | – | > 100
5 | CC(C)(C)OC(=O)NCC(=O)NCC(=O)NCC(=O)NCC(=O)NCC(=O)OCc1ccccc1 [benzyl] | 0.070 | 0.017 | insoluble | 4.1 | –
